Measured values taken from patent US7605168B2 (Plexxikon, Inc., priority 2004, dated 2009).

Tests used:
[1] = test system: TNF-α release from whole blood cultures stimulated with LPS; assay: IC50 by TNF alpha production upon stimulation of whole blood cultures with LPS; format: cell-based; conditions: human whole blood (buffy coat) culture, 100 ng/ml LPS, 4 hours; read-out: h TNFα IC50
Experimental: Compounds were assayed to generate IC50 numbers based on the inhibition of TNF-α release from whole blood cultures, using the following assay protocol (see Table 5 for compounds tested and results). Inhibition of PDE4B results in the inhibition of TNF-α release by whole blood cultures stimulated with lipopolysaccharide (LPS). The measurement of TNF-α release was used to assess compounds as PDE4B inhibitors.
Compounds were provided in DMSO at 20 mM and 2 μl per well was added to one row of a dilution plate. Added 98 μl of RPMI 1640 media with 2.5% heat inactivated FBS to each well containing compound. The same media with 2% DMSO was prepared and 60 μl was added to each of the empty wells in the dilution plate. The compound was serially diluted 1:3 (30 μl to 60 μl of media) for a total of 8 concentrations per compound. Wells were also prepared with 50 μM roflumilast and piclamilast as 100% inhibition controls, and 2% DMSO in media was used as 0% inhibition control. A 20 μl aliquot of each sample was transferred to an assay plate in duplicate.
Human buffy coat was obtained from the Stanford Medical School Blood Center and diluted with 7 volumes of RPMI 1640 media with 1% penicillin/streptomycin and 2.5% heat inactivated FBS. A 160 μl aliquot of the diluted blood was added to each well of the assay plates, mixed and incubated for 1 hour at 37° C. in 5% CO2. LPS (Sigma catalog number L2637) that had been diluted to 1 mg/ml in PBS and stored as 20 μl aliquots at −20° C. was thawed and diluted 1000× to 1 μg/ml. A 20 μl aliquot of this was added to each sample (final concentration 100 ng/ml LPS) after the 1 hour incubation. A background sample was prepared without addition of LPS as well. The samples were mixed on a shaker for one minute at 900 RPM and incubated for 4 hours at 37° C. in 5% CO2. The plates were then put on a shaker for one minute at 900 RPM, followed by centrifuging at 100×g for 10 minutes, deceleration setting of 5. The top 75 μl of supernatant was carefully pipetted to a new plate and frozen at −20° C.
A 50 μl aliquot of incubation buffer (Biosource International Immunoassay Kit:Human TNF-α catalog number KHC3011) was added to each well of a plate coated with monoclonal antibody specific for hTNF-α (Biosource kit). The supernatant blood samples were thawed and a 50 μl aliquot along with 50 μl of diluent buffer (Biosource kit) were added to incubation buffer and the samples were incubated for 2 hours at room temperature. The samples were washed 4 times with 300 μl/well wash buffer (Biosource kit). A 100 μl aliquot of biotinylated anti-TNFalpha (Biosource kit) was added and the samples incubated for 1 hour at room temperature. The samples were washed 4 times with 300 μl/well wash buffer. A 100 μl aliquot of Streptavidin-HRP solution (BioSource kit) was added and the samples incubated for 30 minutes at room temperature. The samples were washed 4 times with 300 μl/well wash buffer. A 100 μl aliquot of Chromagen (Biosource kit) was added and the samples incubated in the dark for 30 minutes. A 100 μl aliquot of stop solution (2N H2SO4) was added to each sample and samples were read at 450 nm on a WallacVictor for 0.1 sec/well.

[2] = biological target: T1, PDE4B2: full-length human PDE4B2 isozyme (Homo sapiens, UniProt Q07343); assay: PDE4 IC50 determination by Scintillation Proximity Assay (SPA), full-length PDE4B2; format: biochemical; conditions: cell lysate, [3H]cAMP SPA
T1 construct: made in house; host or cells: baculovirus infected insect cells (pFastBacHT)
T1 sequence (Q07343 with tags, fused parts or gaps isoform Q07343-2): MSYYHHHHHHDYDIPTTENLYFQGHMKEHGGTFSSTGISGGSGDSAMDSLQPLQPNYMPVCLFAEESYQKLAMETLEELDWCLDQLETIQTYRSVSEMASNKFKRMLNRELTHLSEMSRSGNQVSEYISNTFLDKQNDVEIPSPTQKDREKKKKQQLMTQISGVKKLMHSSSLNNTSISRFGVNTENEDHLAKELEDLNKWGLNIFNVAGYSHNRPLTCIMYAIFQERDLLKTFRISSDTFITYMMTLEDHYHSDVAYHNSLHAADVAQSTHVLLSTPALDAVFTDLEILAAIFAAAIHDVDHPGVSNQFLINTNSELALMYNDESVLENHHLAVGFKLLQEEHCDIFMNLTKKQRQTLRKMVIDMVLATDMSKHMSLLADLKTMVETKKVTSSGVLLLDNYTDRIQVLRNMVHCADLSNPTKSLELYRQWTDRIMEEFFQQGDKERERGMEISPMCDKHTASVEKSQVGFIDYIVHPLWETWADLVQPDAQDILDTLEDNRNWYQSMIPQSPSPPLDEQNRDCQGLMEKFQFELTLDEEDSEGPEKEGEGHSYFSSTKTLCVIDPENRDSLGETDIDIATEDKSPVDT
Experimental: (§1) The enzyme was not purified from the cell lysates, so enzyme concentrations were not determined. Enzyme was stored in 50% glycerol at −20°.
(§2) IC50s were determined by Scintillation Proximity Assay (SPA). The principle of the assay is based on the fact that cAMP, the PDE4 substrate, binds weakly to Yittrium Silicate SPA beads, whereas AMP, the product of PDE4 hydrolysis binds strongly. Thus, the extent of PDE4 hydrolysis of a sample of [^3H]cAMP can be measured because only the [^3H]AMP produced by PDE4 hydrolysis will bind to the SPA beads and produce a scintillation signal.
(§3) In addition to the compound dilutions, each assay plate contained control wells with 1 μl of DMSO (to define 0% enzyme inhibition) or 1 μl of 200 μM roflumilast (to define 100% enzyme inhibition). Using a Beckman FX robot, 10 μl of [^3H] cAMP (Amersham TRK559) at […] in assay buffer (50 mM Tris, pH 7.5; 8.3 mM MgCl; 1.7 mM EGTA; 0.01% BSA) was transferred to each assay well. Next, 10 μl of PDE4 enzyme in assay buffer was added and the plates were shaken for 30 s. at 1000 rpm to start the cAMP hydrolysis reaction. The concentrations of enzyme used were: PDE4B, 80 ng/ml; PDE4D, 4 ng/ml; PDE4B2, 2.5 μl of 50% glycerol stock/ml; PDE4D5 0.083 μl of 50% glycerol stock/ml. Assay plates were covered and incubated for 30 min. at 30° C. Reactions were stopped by robotic addition of 10 μl of 5 mg/ml SPA beads (Amersham RPNQ0013) in 18 mM ZnSO4. The assay plates were covered with clear plastic film, centrifuged for 1 min. at 1000 RPM to settle the SPA beads, and counted using a Wallac TriLux scintillation counter. IC50's were calculated from the raw assay data by non-linear regression curve fitting using the Assay Explorer software package from MDL.

[3] = biological target: T2, PDE4B: catalytic domain of human PDE4B from S152-S528 (Homo sapiens, UniProt Q07343); assay: PDE4 IC50 determination by Scintillation Proximity Assay (SPA), PDE4B catalytic domain; format: biochemical; conditions: [3H]cAMP SPA, 30 min at 30° C.
T2 construct: The catalytic domain of human PDE4B from S152-S528; His6 (N, cleaved yes); thrombin cleavage site (N, cleaved yes); made in house; host or cells: E. coli BL21 (DE3) RIL
T2 sequence (Q07343 324-700): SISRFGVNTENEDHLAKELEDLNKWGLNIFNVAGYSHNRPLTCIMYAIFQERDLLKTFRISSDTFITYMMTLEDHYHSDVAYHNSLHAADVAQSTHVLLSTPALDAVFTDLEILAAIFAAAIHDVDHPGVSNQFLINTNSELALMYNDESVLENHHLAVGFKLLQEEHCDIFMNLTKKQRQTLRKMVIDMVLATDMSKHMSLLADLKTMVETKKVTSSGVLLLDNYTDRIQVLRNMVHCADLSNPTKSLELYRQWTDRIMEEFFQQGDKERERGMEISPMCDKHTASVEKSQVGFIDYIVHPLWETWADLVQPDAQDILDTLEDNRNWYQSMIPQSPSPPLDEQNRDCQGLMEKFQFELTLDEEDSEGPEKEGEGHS
Experimental: as §2
Enzyme was stored in 50% glycerol at −20°.
as §3

[4] = biological target: T3, PDE4D5: full-length human PDE4D5 isozyme (Homo sapiens, UniProt Q08499); assay: PDE4 IC50 determination by Scintillation Proximity Assay (SPA), full-length PDE4D5; format: biochemical; conditions: cell lysate, [3H]cAMP SPA
T3 construct: made in house; host or cells: baculovirus infected insect cells (pFastBacHT)
T3 sequence (Q08499 with tags, fused parts or gaps isoform Q08499-6): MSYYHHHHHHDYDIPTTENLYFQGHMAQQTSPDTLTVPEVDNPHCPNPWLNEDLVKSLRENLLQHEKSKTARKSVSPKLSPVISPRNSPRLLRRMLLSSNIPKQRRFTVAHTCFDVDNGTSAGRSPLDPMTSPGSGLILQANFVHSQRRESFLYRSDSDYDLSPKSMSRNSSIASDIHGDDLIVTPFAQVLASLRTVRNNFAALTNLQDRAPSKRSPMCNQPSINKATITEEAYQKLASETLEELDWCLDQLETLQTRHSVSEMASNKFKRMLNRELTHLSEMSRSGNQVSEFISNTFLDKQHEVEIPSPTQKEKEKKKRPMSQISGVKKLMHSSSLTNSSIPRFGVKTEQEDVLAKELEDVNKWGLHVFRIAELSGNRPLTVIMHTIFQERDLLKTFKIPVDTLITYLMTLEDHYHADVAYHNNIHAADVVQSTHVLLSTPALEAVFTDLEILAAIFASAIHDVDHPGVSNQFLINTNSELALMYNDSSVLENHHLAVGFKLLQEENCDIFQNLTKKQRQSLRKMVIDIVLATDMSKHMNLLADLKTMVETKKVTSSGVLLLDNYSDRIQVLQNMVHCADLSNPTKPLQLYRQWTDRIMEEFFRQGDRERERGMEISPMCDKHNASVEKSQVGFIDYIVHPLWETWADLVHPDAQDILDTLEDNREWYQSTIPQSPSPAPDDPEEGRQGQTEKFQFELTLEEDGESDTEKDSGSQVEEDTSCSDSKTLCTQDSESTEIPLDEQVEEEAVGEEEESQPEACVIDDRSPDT
Experimental: as §1, §2, §3

`COc1ccc(-c2cn(S(=O)(=O)c3ccc(C)c4ccccc34)c3ncccc23)cc1OC` [Compound 12, 3-(3,4-Dimethoxy-phenyl)-1-(4-methyl-naphthalene-1-sulfonyl)-1H-pyrrolo[2,3-b]pyridine] was tested, and the IC50 [1] was over 10 µM, the IC50 [2] was under 10 µM and the IC50 [3] was under 10 µM. The IC50 [4] was under 10 µM.

`COc1ccc(-c2cn(S(=O)(=O)c3cccc4cnccc34)c3ncccc23)cc1OC` [Compound 14, 5-[3-(3,4-Dimethoxy-phenyl)-pyrrolo[2,3-b]pyridine-1-sulfonyl]-isoquinoline] was tested, and the IC50 [1] was at most 10 µM, the IC50 [2] was under 10 µM and the IC50 [3] was under 10 µM. The IC50 [4] was under 10 µM.

`COc1ccc(-c2cn(S(=O)(=O)c3cccc4ccccc34)c3ncccc23)cc1OC` [Compound 16, 3-(3,4-Dimethoxy-phenyl)-1-(naphthalene-1-sulfonyl)-1H-pyrrolo[2,3-b]pyridine] was tested, and the IC50 [1] was at most 10 µM, the IC50 [2] was under 10 µM and the IC50 [3] was under 10 µM. It also gave an IC50 [4] of under 10 µM.

`COc1ccc(-c2cn(S(=O)(=O)c3cccc4cccnc34)c3ccccc23)cc1OC` [Compound 21, 8-[3-(3,4-dimethoxy-phenyl)-indole-1-sulfonyl]-quinoline] was tested, and the IC50 [1] was at most 10 µM, the IC50 [2] was under 10 µM and the IC50 [3] was under 10 µM. For the same compound, the IC50 [4] was under 10 µM.

With `COc1ccc(-c2cn(C(=O)Nc3ccc(Cl)cc3)c3ncccc23)cc1OC` [Compound 26, 3-(3,4-dimethoxy-phenyl)-pyrrolo[2,3-b]pyridine-1-carboxylic acid (4-chloro-phenyl)-amide] the IC50 [1] was at most 10 µM, the IC50 [2] was under 10 µM and the IC50 [3] was under 10 µM. For the same compound, the IC50 [4] was under 10 µM.

For `COc1ccc(NC(=O)n2cc(-c3ccc(OC)c(OC)c3)c3cccnc32)cc1Cl` [Compound 27, 3-(3,4-Dimethoxy-phenyl)-pyrrolo[2,3-b]pyridine-1-carboxylic acid (3-chloro-4-methoxy-phenyl)-amide], the IC50 [1] was at most 10 µM, the IC50 [2] was under 10 µM and the IC50 [3] was under 10 µM. It also gave an IC50 [4] of under 10 µM.

For `COc1cc(NC(=O)n2cc(-c3ccc(OC)c(OC)c3)c3cccnc32)cc(OC)c1` [Compound 29, 3-(3,4-Dimethoxy-phenyl)-pyrrolo[2,3-b]pyridine-1-carboxylic acid (3,5-dimethoxy-phenyl)-amide], the IC50 [1] was at most 10 µM, the IC50 [2] was under 10 µM and the IC50 [3] was under 10 µM. It also gave an IC50 [4] of under 10 µM.

Work on `COc1ccc(-c2cn(C(=O)Nc3cccc(C(C)=O)c3)c3ncccc23)cc1OC` [Compound 34, 3-(3,4-Dimethoxy-phenyl)-pyrrolo[2,3-b]pyridine-1-carboxylic acid (3-acetyl-phenyl)-amide] yielded an IC50 [1] of at most 10 µM, an IC50 [2] of under 10 µM and an IC50 [3] of under 10 µM. The IC50 [4] was under 10 µM.

With `COc1ccc(-c2cn(C(=O)Nc3ccc(Cl)c(Cl)c3)c3ncccc23)cc1OC` [Compound 37, 3-(3,4-Dimethoxy-phenyl)-pyrrolo[2,3-b]pyridine-1-carboxylic acid (3,4-dichloro-phenyl)-amide] the IC50 [1] was at most 10 µM, the IC50 [2] was under 10 µM and the IC50 [3] was under 10 µM. It also gave an IC50 [4] of under 10 µM.

Work on `COc1ccc(-c2cn(C(=O)Nc3cccc([N+](=O)[O-])c3)c3ncccc23)cc1OC` [Compound 38, 3-(3,4-Dimethoxy-phenyl)-pyrrolo[2,3-b]pyridine-1-carboxylic acid (3-nitro-phenyl)-amide] yielded an IC50 [1] of over 10 µM, an IC50 [2] of under 10 µM and an IC50 [3] of under 10 µM. The IC50 [4] was over 10 µM.

Compound `COc1ccc(-c2cn(C(=S)Nc3ccccc3)c3ncccc23)cc1OC` [Compound 41, 3-(3,4-dimethoxy-phenyl)-pyrrolo[2,3-b]pyridine-1-carbothioic acid phenylamide] has an IC50 [1] of at most 10 µM, an IC50 [2] of under 10 µM and an IC50 [3] of under 10 µM. For the same compound, the IC50 [4] was under 10 µM.

`COc1ncc(-c2cn(S(=O)(=O)c3cccc4cccnc34)c3ncccc23)cn1` [Compound 43, 8-[3-(2-methoxy-pyrimidin-5-yl)-pyrrolo[2,3-b]pyridine-1-sulfonyl]-quinoline] was tested, and the IC50 [1] was at most 10 µM, the IC50 [2] was under 10 µM and the IC50 [3] was under 10 µM. For the same compound, the IC50 [4] was under 10 µM.

`CCOc1ccccc1C(=O)n1ccc2c(-c3ccc(OC)c(OC)c3)ccnc21` [Compound 51, [4-(3,4-Dimethoxy-phenyl)-pyrrolo[2,3-b]pyridin-1-yl]-(2-ethoxy-phenyl)-methanone] showed an IC50 [1] of over 10 µM, an IC50 [2] of under 10 µM and an IC50 [3] of under 10 µM. For the same compound, the IC50 [4] was under 10 µM.

Compound `CCOc1cc([N+](=O)[O-])ccc1C(=O)n1cc(-c2ccc(OC)c(OC)c2)c2cccnc21` [Compound 54, [3-(3,4-Dimethoxy-phenyl)-pyrrolo[2,3-b]pyridin-1-yl]-(2-ethoxy-4-nitro-phenyl)-methanone] has an IC50 [1] of over 10 µM, an IC50 [2] of under 10 µM and an IC50 [3] of under 10 µM. For the same compound, the IC50 [4] was under 10 µM.

With `COc1ccc(-c2cn(C(=O)c3ccccc3)c3ncccc23)cc1OC` [Compound 55, [3-(3,4-Dimethoxy-phenyl)-pyrrolo[2,3-b]pyridin-1-yl]phenylmethanone-amide] the IC50 [1] was at most 10 µM, the IC50 [2] was under 10 µM and the IC50 [3] was under 10 µM. It also gave an IC50 [4] of under 10 µM.

For `COc1ccc(-c2cn(C(=O)c3cnccc3C(F)(F)F)c3ncccc23)cc1OC` [Compound 57, [3-(3,4-Dimethoxy-phenyl)-pyrrolo[2,3-b]pyridin-1-yl]-(4-trifluoromethypyridn-3-yl)-methanone-amide], the IC50 [1] was over 10 µM, the IC50 [2] was under 10 µM and the IC50 [3] was under 10 µM. For the same compound, the IC50 [4] was under 10 µM.

`COc1ccc(-c2cn(C(=O)c3cccc4ccccc34)c3ncccc23)cc1OC` [Compound 58, [3-(3,4-Dimethoxy-phenyl)-pyrrolo[2,3-b]pyridin-1-yl]-(1-naphthyl)-methanone-amide] gave an IC50 [1] of at most 10 µM, an IC50 [2] of under 10 µM and an IC50 [3] of under 10 µM. The IC50 [4] was under 10 µM.

For `COc1ccc(-c2cn(C(=O)c3cccnc3Cl)c3ncccc23)cc1OC` [Compound 59, [3-(3,4-Dimethoxy-phenyl)-pyrrolo[2,3-b]pyridin-1-yl]-(2-chloropyridin-3-yl)-methanone-amide], the IC50 [1] was at most 10 µM, the IC50 [2] was under 10 µM and the IC50 [3] was under 10 µM. For the same compound, the IC50 [4] was under 10 µM.

For `COc1ccc(-c2cn(C(C)=O)c3ncccc23)cc1OC` [Compound 67, 1-[3-(3,4-Dimethoxy-phenyl)-pyrrolo[2,3-b]pyridin-1-yl]-ethanone], the IC50 [1] was at most 10 µM, the IC50 [2] was under 10 µM and the IC50 [3] was under 10 µM. It also gave an IC50 [4] of under 10 µM.
